33 molecules from ChEMBL document CHEMBL1134931, “Aminoalkoxybiphenylnitriles as histamine-3 receptor ligands” (Bioorg Med Chem Lett, 2002) can be followed below.

pKi: −log10 of the molar value.

Test [1] deals with T1, Histamine H3 receptor (Homo sapiens, UniProt Q9Y5N1). In words: Binding affinity at human cloned Histamine H3 receptor.
Test [2] has as its target T2, Histamine H3 receptor (Rattus norvegicus, UniProt Q9QYN8). In words: Binding affinity at rat cortical Histamine H3 receptor.
The target in test [3] is T3, Histamine H2 receptor (Homo sapiens, UniProt P25021). The experiment in a line: Binding affinity to the human cortical histamine H2 receptor.
Test [4] addresses T4, Histamine H1 receptor (Homo sapiens, UniProt P35367). In words: Binding affinity of human cortical histamine H1 receptor.
Test [5] addresses T2, Histamine H3 receptor. In words: Binding affinity at rat cortical Histamine 3 receptor.
In test [6] the target is T3, Histamine H2 receptor. In words: Binding affinity at human cortical Histamine 2 receptor.
For test [7], the target named is T4, Histamine H1 receptor. In words: Binding affinity at human cortical Histamine 1 receptor.
The target in test [8] is T1, Histamine H3 receptor. In words: Binding affinity at human cloned Histamine 3 receptor.

T1 sequence (Q9Y5N1 whole entry): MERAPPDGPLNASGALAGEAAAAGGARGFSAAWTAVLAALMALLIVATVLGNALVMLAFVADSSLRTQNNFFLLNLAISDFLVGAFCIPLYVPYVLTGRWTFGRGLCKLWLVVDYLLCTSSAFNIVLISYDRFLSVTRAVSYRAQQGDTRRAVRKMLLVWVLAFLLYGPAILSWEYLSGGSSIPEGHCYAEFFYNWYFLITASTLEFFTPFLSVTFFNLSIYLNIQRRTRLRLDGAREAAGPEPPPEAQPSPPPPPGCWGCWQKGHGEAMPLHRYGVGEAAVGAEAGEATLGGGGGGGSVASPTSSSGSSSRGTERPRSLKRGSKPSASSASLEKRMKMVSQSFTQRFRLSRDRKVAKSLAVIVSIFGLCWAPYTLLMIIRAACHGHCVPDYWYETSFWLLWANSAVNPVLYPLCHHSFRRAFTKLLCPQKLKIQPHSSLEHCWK
T2 sequence (Q9QYN8 whole entry): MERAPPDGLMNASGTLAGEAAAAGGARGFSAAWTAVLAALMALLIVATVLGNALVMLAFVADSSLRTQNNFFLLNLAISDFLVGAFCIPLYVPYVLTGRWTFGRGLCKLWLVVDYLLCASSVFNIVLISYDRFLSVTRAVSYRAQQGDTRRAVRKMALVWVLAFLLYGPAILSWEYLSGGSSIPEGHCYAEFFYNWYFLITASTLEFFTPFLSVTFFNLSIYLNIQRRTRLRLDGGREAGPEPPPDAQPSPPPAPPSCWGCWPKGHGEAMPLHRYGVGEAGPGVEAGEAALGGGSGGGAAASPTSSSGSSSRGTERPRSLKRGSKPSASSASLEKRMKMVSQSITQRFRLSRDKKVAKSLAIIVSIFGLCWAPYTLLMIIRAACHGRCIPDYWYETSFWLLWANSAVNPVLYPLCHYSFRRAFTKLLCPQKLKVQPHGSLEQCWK
T4 sequence (P35367 whole entry): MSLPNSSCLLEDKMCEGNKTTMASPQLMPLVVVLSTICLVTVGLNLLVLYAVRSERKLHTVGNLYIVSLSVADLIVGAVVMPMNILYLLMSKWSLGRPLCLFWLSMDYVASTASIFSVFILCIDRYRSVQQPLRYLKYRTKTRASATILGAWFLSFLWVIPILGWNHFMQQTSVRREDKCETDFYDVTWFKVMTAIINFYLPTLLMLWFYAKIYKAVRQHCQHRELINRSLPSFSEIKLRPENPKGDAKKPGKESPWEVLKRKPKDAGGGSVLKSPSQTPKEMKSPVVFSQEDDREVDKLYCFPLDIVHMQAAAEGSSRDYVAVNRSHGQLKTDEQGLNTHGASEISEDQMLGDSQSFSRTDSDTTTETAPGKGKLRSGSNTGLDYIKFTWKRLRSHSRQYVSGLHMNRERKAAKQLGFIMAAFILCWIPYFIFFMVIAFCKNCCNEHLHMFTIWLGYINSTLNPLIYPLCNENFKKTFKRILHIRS
T3 sequence (P25021 whole entry): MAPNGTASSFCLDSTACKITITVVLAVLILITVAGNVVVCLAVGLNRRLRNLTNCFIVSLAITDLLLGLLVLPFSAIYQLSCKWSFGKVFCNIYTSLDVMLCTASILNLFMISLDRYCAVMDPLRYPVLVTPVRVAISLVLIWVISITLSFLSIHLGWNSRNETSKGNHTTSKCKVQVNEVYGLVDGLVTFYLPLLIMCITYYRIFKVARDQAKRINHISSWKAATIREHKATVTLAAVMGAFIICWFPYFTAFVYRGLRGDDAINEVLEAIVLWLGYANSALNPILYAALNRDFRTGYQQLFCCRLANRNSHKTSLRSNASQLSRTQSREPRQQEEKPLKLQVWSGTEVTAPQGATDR

Consider `CCOC(=O)N1CCN(CCCOc2ccc(-c3cc[nH]c3)cc2)CC1`, for which the pKi at Histamine H3 receptor [1] is 6.00; at Histamine H3 receptor [2], 7.25; at Histamine H2 receptor [3], 4.89; at Histamine H1 receptor [4], 6.30.

As to `N#Cc1ccc(-c2ccc(OCCCN3CCC(O)CC3)cc2)cc1`, the pKi at Histamine H3 receptor [1] was 6.91; on Histamine H3 receptor [2], 7.50; on Histamine H2 receptor [3] it was 5.00; at Histamine H1 receptor [4], 6.24.

Regarding `N#Cc1ccc(-c2ccc(OCCCN3CCC(N)CC3)cc2)cc1`, the pKi at Histamine H3 receptor [5] is 6.89; on Histamine H2 receptor [6], 4.47; on Histamine H1 receptor [7] it was 5.45; at Histamine H3 receptor [8], 6.70.

As to `CC1CCCCN1CCCOc1ccc(-c2ccc(C#N)cc2)cc1` (stereo not given), the pKi at Histamine H3 receptor [1] was 8.15; on Histamine H3 receptor [2], 7.64; on Histamine H2 receptor [3], 4.73; at Histamine H1 receptor [4], 5.46.

Regarding `N#Cc1ccc(-c2ccc(OCCCN3CC[C@@H](O)C3)cc2)cc1`, the pKi was 4.77 at Histamine H2 receptor [6], 5.35 at Histamine H1 receptor [7] and 8.08 on Histamine H3 receptor [8].

With `CCOC(=O)N1CCN(CCCOc2ccc(-c3c[nH]cn3)cc2)CC1`, the pKi on Histamine H3 receptor [2] was 6.06; on Histamine H2 receptor [3], 4.16; on Histamine H1 receptor [4], 5.83.

For `N#Cc1ccc(-c2ccc(OCCCN3CC[C@@H](N)C3)cc2)cc1`, the pKi on Histamine H3 receptor [5] is 7.20; at Histamine H2 receptor [6], 5.13; at Histamine H1 receptor [7], 4.86; at Histamine H3 receptor [8], 8.21.

For the molecule `CCOC(=O)N1CCN(CCCOc2ccc(-c3cccc(C#N)c3)cc2)CC1`, the pKi is 4.62 at Histamine H2 receptor [6] and 6.42 on Histamine H1 receptor [7].

`CCOC(=O)N1CCN(CCCOc2ccc(-c3ccc(Cl)cc3)cc2)CC1`: the pKi at Histamine H3 receptor [5] was 6.72; on Histamine H2 receptor [6] it was 5.25; on Histamine H1 receptor [7] it was 6.45.

For `CCOC(=O)N1CCN(CCCOc2ccc(-c3ccc(OC)cc3)cc2)CC1`, the pKi was 4.00 at Histamine H2 receptor [3] and 6.45 on Histamine H1 receptor [4].

Take `CC1CCCC(C)N1CCCOc1ccc(-c2ccc(C#N)cc2)cc1` (stereo not given): the pKi at Histamine H3 receptor [1] was 8.67; on Histamine H3 receptor [2], 7.79; at Histamine H2 receptor [3], 4.62; at Histamine H1 receptor [4], 5.40.

`CCOC(=O)N1CCN(CCCOc2ccc(-c3ccsc3)cc2)CC1`: the pKi at Histamine H3 receptor [2] is 6.68; at Histamine H2 receptor [3], 4.01; at Histamine H1 receptor [4] it was 6.12.

Turning to `N#Cc1ccc(-c2ccc(OCCCN3CCNCC3)cc2)cc1`, the pKi was 6.93 on Histamine H3 receptor [1], 6.23 on Histamine H3 receptor [2], 4.64 on Histamine H2 receptor [3] and 5.05 on Histamine H1 receptor [4].

Take `CCOC(=O)N1CCN(CCCOc2ccc(-c3ccc(C#N)cc3C)cc2)CC1`: the pKi is 6.99 at Histamine H3 receptor [2], 5.40 at Histamine H2 receptor [3] and 7.56 at Histamine H1 receptor [4].

On to `C[C@@H]1CC[C@@H](C)N1CCCOc1ccc(-c2ccc(C#N)cc2)cc1`, for which the negative logarithm of the Ki (pKi) was 9.17 at Histamine H3 receptor [1], 8.19 on Histamine H3 receptor [2], 5.04 on Histamine H2 receptor [3] and 6.25 at Histamine H1 receptor [4].

Turning to `CCOC(=O)N1CCN(CCCOc2ccc(-c3ccccc3[N+](=O)[O-])cc2)CC1`, the pKi is 6.21 on Histamine H3 receptor [5], 5.12 on Histamine H2 receptor [6] and 6.79 at Histamine H1 receptor [7].

Consider `N#Cc1ccc(-c2ccc(OCCCN3CCCNCC3)cc2)cc1`, for which the pKi on Histamine H3 receptor [1] is 8.08; on Histamine H3 receptor [2] it was 7.87; on Histamine H2 receptor [3], 5.11; at Histamine H1 receptor [4], 5.41.

`N#Cc1ccc(-c2ccc(OCCCN3CCOCC3)cc2)cc1`: the pKi on Histamine H3 receptor [1] was 7.44; on Histamine H3 receptor [2], 7.60; at Histamine H2 receptor [3], 4.42; on Histamine H1 receptor [4] it was 5.49.

Regarding `CN[C@@H]1CCN(CCCOc2ccc(-c3ccc(C#N)cc3)cc2)C1`, the results for the pKi on Histamine H3 receptor [1], at Histamine H2 receptor [3] and on Histamine H1 receptor [4] were 8.07, 5.00 and 5.43, respectively.

As for `N#Cc1ccc(-c2ccc(OCCCN3CCCC(O)C3)cc2)cc1` (stereo not given), the pKi at Histamine H3 receptor [1] is 7.52; at Histamine H3 receptor [2] it was 7.09; on Histamine H2 receptor [3], 4.89; on Histamine H1 receptor [4], 5.11.

As for `CCOC(=O)N1CCN(CCCOc2ccc(-c3cccs3)cc2)CC1`, the figures for the negative-log Ki (pKi) on Histamine H3 receptor [2], on Histamine H2 receptor [3] and on Histamine H1 receptor [4] were 6.64, 4.48 and 6.35, respectively.

With `C[C@@]1(O)CCN(CCCOc2ccc(-c3ccc(C#N)cc3)cc2)C1`, the negative logarithm of the Ki (pKi) was 8.39 on Histamine H3 receptor [1], 7.81 at Histamine H3 receptor [2], 4.82 at Histamine H2 receptor [3] and 5.41 at Histamine H1 receptor [4].

For the molecule `N#Cc1ccc(-c2ccc(OCCCN3CCCC3)cc2)cc1`, the pKi is 7.38 on Histamine H3 receptor [5], 4.17 at Histamine H2 receptor [6], 5.30 on Histamine H1 receptor [7] and 8.14 at Histamine H3 receptor [8].

For the molecule `CCOC(=O)N1CCN(CCCOc2ccc(-c3ccc(Br)cc3)cc2)CC1`, the negative-log Ki (pKi) on Histamine H3 receptor [2] was 6.95; on Histamine H2 receptor [3] it was 5.78; at Histamine H1 receptor [4] it was 6.74.

Turning to `CCOC(=O)N1CCN(CCCOc2ccc(-c3ccc([N+](=O)[O-])cc3)cc2)CC1`, the pKi was 7.01 at Histamine H3 receptor [5], 5.08 at Histamine H2 receptor [6] and 7.09 at Histamine H1 receptor [7].

Turning to `N#Cc1ccc(-c2ccc(OCCCN3CC[C@H](O)C3)cc2)cc1`, the negative logarithm of the Ki (pKi) on Histamine H3 receptor [5] was 6.90; on Histamine H2 receptor [6] it was 4.72; at Histamine H1 receptor [7], 5.25; on Histamine H3 receptor [8], 7.71.

Turning to `CN(C)[C@@H]1CCN(CCCOc2ccc(-c3ccc(C#N)cc3)cc2)C1`, the pKi was 8.56 at Histamine H3 receptor [1], 7.87 on Histamine H3 receptor [2], 5.00 on Histamine H2 receptor [3] and 5.72 at Histamine H1 receptor [4].

Regarding `CCOC(=O)N1CCN(CCCOc2ccc(-c3ccc(C#N)cc3)cc2)CC1`, the pKi at Histamine H3 receptor [1] was 6.00; on Histamine H3 receptor [2], 7.55; at Histamine H2 receptor [3] it was 4.54; at Histamine H1 receptor [4], 6.80.

For the molecule `CC1CCCN(CCCOc2ccc(-c3ccc(C#N)cc3)cc2)C1` (stereo not given), the pKi on Histamine H3 receptor [1] is 8.77; on Histamine H3 receptor [2] it was 7.58; at Histamine H2 receptor [3], 4.93; on Histamine H1 receptor [4], 6.56.

For the molecule `CC1CCN(CCCOc2ccc(-c3ccc(C#N)cc3)cc2)CC1`, the pKi at Histamine H3 receptor [1] was 7.86; on Histamine H3 receptor [2], 8.01; on Histamine H2 receptor [3], 5.04; on Histamine H1 receptor [4], 6.37.

For the molecule `CCOC(=O)N1CCN(CCCOc2ccc(-c3ccncc3)cc2)CC1`, the negative logarithm of the Ki (pKi) on Histamine H2 receptor [3] is 4.24; at Histamine H1 receptor [4], 5.43.

Turning to `N#Cc1ccc(-c2ccc(OCCCN3CC4CNCC4C3)cc2)cc1` (stereo not given), the pKi was 7.82 on Histamine H3 receptor [1], 7.18 on Histamine H3 receptor [2], 4.91 at Histamine H2 receptor [3] and 5.54 on Histamine H1 receptor [4].

For the molecule `CCOC(=O)N1CCN(CCCOc2ccc(-c3ccc(OC(F)(F)F)cc3)cc2)CC1`, the results for the pKi at Histamine H3 receptor [2], on Histamine H2 receptor [3] and on Histamine H1 receptor [4] were 6.62, 5.44 and 6.36, respectively.
